According to US20250152585A1, “PHARMACEUTICAL COMPOUND” (Duke Street Bio Limited, priority 2022, published 2025):
Read-outs that look alike come from different tables or passages of the source.

Tests used:
[1] = biological target: T1, full length N-terminally FLAG-tagged PARP1 (Homo sapiens, UniProt P09874); experiment: PARP1 biochemical DELFIA assay (auto-PARylation); design: recombinant full length human N-terminally FLAG-tagged PARP1
[2] = biological target: T1, full length N-terminally FLAG-tagged PARP1; experiment: PARP1 probe displacement HTRF assay; conditions: for Selectivity: PARP1 over PARP2, ratio Kd (PARP2)/Kd (PARP1); for Kd: binned Kd
[3] = biological target: T2, N-terminally FLAG-tagged PARP2 (amino acids 1-583) (Homo sapiens, UniProt Q9UGN5); experiment: PARP2 probe displacement HTRF assay; format: binding; conditions: binned Kd
T2 construct: N-terminally FLAG-tagged PARP2 (amino acids 1-583)
T2 sequence (Q9UGN5 whole entry, the tested form may be a part): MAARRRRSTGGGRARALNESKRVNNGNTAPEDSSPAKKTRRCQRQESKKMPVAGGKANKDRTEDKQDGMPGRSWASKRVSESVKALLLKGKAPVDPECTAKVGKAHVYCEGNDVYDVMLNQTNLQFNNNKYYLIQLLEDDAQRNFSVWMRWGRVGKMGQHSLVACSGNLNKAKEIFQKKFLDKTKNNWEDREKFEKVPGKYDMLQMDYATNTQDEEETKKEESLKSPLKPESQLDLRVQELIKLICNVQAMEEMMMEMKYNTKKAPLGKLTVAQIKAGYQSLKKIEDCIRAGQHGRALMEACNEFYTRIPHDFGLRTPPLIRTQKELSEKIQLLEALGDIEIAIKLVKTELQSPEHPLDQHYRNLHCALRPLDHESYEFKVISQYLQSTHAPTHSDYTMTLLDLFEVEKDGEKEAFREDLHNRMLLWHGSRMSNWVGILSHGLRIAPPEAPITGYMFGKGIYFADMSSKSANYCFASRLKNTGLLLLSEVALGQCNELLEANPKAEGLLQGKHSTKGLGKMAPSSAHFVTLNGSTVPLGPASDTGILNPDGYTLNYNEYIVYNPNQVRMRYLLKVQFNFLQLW
Method: Data analysis was performed identical as for PARP1.

[4] = binned IC50, biochemical auto-PARylation assay
[5] = read-out: PARP1 HTRF, probe displacement HTRF
[6] = binned IC50, PARP1 biochemical DELFIA assay
[7] = read-out: PARP1 HTRF, PARP1 probe displacement HTRF
[8] = PARP1 HTRF, probe displacement HTRF

T1 sequence (P09874 whole entry): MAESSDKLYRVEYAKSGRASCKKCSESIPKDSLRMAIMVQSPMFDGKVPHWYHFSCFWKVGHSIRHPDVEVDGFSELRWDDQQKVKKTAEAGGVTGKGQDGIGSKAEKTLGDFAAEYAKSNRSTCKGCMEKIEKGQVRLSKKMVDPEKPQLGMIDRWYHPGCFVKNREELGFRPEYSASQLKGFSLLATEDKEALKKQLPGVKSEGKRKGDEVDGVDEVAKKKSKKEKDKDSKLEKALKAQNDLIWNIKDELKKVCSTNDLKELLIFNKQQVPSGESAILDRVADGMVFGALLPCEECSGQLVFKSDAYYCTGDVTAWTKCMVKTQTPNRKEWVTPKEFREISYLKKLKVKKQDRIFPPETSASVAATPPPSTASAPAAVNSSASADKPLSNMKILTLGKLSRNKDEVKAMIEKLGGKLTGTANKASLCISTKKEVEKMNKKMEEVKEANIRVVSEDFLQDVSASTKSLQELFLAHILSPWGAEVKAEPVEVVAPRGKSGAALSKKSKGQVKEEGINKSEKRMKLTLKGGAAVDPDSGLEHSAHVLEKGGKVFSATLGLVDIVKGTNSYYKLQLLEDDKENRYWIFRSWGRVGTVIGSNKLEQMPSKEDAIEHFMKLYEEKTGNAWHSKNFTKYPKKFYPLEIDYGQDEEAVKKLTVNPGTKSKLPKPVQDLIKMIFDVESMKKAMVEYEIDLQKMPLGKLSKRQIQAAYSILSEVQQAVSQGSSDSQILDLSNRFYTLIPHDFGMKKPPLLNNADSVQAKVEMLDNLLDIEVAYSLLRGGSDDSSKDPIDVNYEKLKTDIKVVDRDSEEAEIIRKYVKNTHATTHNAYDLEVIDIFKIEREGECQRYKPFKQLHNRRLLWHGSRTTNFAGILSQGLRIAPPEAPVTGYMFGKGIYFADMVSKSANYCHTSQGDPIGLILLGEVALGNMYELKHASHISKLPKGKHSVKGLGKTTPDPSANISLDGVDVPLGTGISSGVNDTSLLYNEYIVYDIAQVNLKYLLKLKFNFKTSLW

IC50 [1, 4] | Kd [2, 5] | Kd ([3]; probe displacement HTRF) | IC50 [1, 6] | Kd [2, 7] | Kd ([3]; PARP2 probe displacement HTRF) | Kd [2, 8] | Compound | Selectivity ([2]; probe displacement HTRF)
10 to 100 nM | < 10 nM | 1000 to 10000 nM |  |  |  |  | CCc1ccc(C2CCN(C3CCN(c4ccc(C#N)nc4)CC3)C2)[nH]c1=O (single isomer, unassigned) [Compound 326b] | +++ (+++ indicate a value of at least 100)
 |  |  | < 10 nM | < 10 nM | 1000 to 10000 nM |  | CNC(=O)c1ccc(N2CCC(N3CCC(c4nc5ccccc5c(=O)[nH]4)C3)CC2)c(C(F)F)n1 (single isomer, unassigned) [Compound 158a] | +++ (+++ indicate a value of at least 100)
 |  |  | 10 to 100 nM | 10 to 100 nM | > 10000 nM |  | CCc1cnc(C2CCCN(C3CCN(c4ccc(C(=O)NC)nc4)CC3)C2)[nH]c1=O (single isomer, unassigned) [Compound 31b] | +++ (+++ indicate a value of at least 100)
 |  |  | < 10 nM | < 10 nM | 10 to 100 nM |  | CNC(=O)c1cc(C)c(N2CCC(N3CCC(c4cc5ccc(F)cc5c(=O)[nH]4)C3)CC2)cn1 (single isomer, unassigned) [Compound 202b] | + (+ indicates a value of 10 to less than 50)
 |  |  | < 10 nM | < 10 nM | 100 to 1000 nM |  | O=C(NCCF)c1ccc(N2CCC(N3CCC(c4nc5ccccc5c(=O)[nH]4)C3)CC2)cn1 (single isomer, unassigned) [Compound 117b] | +++ (+++ indicate a value of at least 100)
 |  |  | 10 to 100 nM | 10 to 100 nM | 1000 to 10000 nM |  | CNC(=O)c1ccc(OCCN2CCC(c3nc4ccccc4c(=O)[nH]3)C2)cn1 (single isomer, unassigned) [Compound 62a] | ++ (++ indicates a value of 50 to less than 100)
< 10 nM |  | > 10000 nM |  |  |  | < 10 nM | CNC(=O)c1ccc(N2CCC(N3CC4(c5nc6ncc(F)cc6c(=O)[nH]5)CC3C4)CC2)cn1 [Compound 368] | +++ (+++ indicate a value of at least 100)
 |  |  | 10 to 100 nM | 10 to 100 nM | 100 to 1000 nM |  | CNC(=O)c1ccc(N2CCC(N3CCC(c4nc5c(F)ccc(F)c5c(=O)[nH]4)C3)CC2)cn1 (single isomer, unassigned) [Compound 182a] | + (+ indicates a value of 10 to less than 50)
 |  |  | 10 to 100 nM | 10 to 100 nM | > 10000 nM |  | COCCNC(=O)c1ccc(N2CCC(N3CCCC(c4nc5ccccc5c(=O)[nH]4)C3)CC2)cn1 (single isomer, unassigned) [Compound 116a] | +++ (+++ indicate a value of at least 100)
 |  |  | 10 to 100 nM | < 10 nM | 1000 to 10000 nM |  | CNC(=O)c1ccc(N2CCC(N3CCC(c4nc5cc(F)ccc5c(=O)[nH]4)C3)CC2)cn1 (single isomer, unassigned) [Compound 92b] | +++ (+++ indicate a value of at least 100)
< 10 nM |  | > 10000 nM |  |  |  | 10 to 100 nM | CNC(=O)c1ccc(N2CCC(N3CC4(c5nc6ccncc6c(=O)[nH]5)CC3C4)CC2)cn1 [Compound 304] | +++ (+++ indicate a value of at least 100)
 |  |  | 10 to 100 nM | 10 to 100 nM | > 10000 nM |  | CNC(=O)c1ccc(N2CCC(N3CCCC(c4ncc(C(F)(F)F)c(=O)[nH]4)C3)CC2)cn1 (single isomer, unassigned) [Compound 73b] | ++ (++ indicates a value of 50 to less than 100)
< 10 nM | < 10 nM | 100 to 1000 nM |  |  |  |  | O=C(NC1CC1)c1ccc(N2CCC(N3CCC(c4cc5ncc(F)cc5c(=O)[nH]4)C3)CC2)cn1 (single isomer, unassigned) [Compound 372a] | + (+ indicates a value of 10 to less than 50)
10 to 100 nM | 10 to 100 nM | 1000 to 10000 nM |  |  |  |  | CNC(=O)c1ccc(N2CCC(N3CCC(c4cc5cccc(F)c5c(=O)[nH]4)C3)CC2)c(F)c1 (single isomer, unassigned) [Compound 371b] | ++ (++ indicates a value of 50 to less than 100)
10 to 100 nM | 10 to 100 nM | 100 to 1000 nM |  |  |  |  | O=c1[nH]c(C2CCN(C3CCN(c4ccc(C5=NCCN5)cc4)CC3)C2)nc2ccccc12 (racemic) [Compound 307rac] | − (− indicates a value of less than 10)
< 10 nM | < 10 nM | 10 to 100 nM |  |  |  |  | CNC(=O)c1ccc(N2CCC(N3CCC(c4cc5c(c(=O)[nH]4)CCCC5)C3)CC2)cn1 (racemic) [Compound 336rac] | ++ (++ indicates a value of 50 to less than 100)
 |  |  | < 10 nM | < 10 nM | > 10000 nM |  | CNC(=O)c1ccc(N2CCC(N3CCCC(c4nc5c(F)cccc5c(=O)[nH]4)C3)CC2)cn1 (single isomer, unassigned) [Compound 114a] | +++ (+++ indicate a value of at least 100)

IC50 [1, 4] | Kd [2, 5] | Kd ([3]; probe displacement HTRF) | IC50 [1, 6] | Kd [2, 7] | Kd ([3]; PARP2 probe displacement HTRF) | Kd [2, 8] | Compound | Selectivity ([2]; probe displacement HTRF)
 |  |  | 100 to 1000 nM | 1000 to 10000 nM | 1000 to 10000 nM |  | CNC(=O)c1ccc(F)c(N2CCC(N3CCCC(c4nc5ccccc5c(=O)[nH]4)C3)CC2)n1 (racemic) [Compound 95rac] | − (− indicates a value of less than 10)
< 10 nM |  | 100 to 1000 nM |  |  |  | < 10 nM | O=C(NC1CC1)c1ncc(N2CCC(N3CC4(c5nc6ccc(F)cc6c(=O)[nH]5)CC3C4)CC2)cc1F [Compound 411] | +++ (+++ indicate a value of at least 100)
 |  |  | 100 to 1000 nM | 10 to 100 nM | 1000 to 10000 nM |  | CNC(=O)c1ccc(N2CC(N3CCC(c4nc5ccccc5c(=O)[nH]4)C3)C2)cn1 (single isomer, unassigned) [Compound 61a] | + (+ indicates a value of 10 to less than 50)
10 to 100 nM | 10 to 100 nM | 100 to 1000 nM |  |  |  |  | CNC(=O)c1ccc(N2CCC(N3CCC(c4nc5c(C)scc5c(=O)[nH]4)C3)CC2)cn1 (single isomer, unassigned) [Compound 232a] | − (− indicates a value of less than 10)
 |  |  | 100 to 1000 nM | 100 to 1000 nM | 1000 to 10000 nM |  | CNC(=O)c1ccc(N2CCC(N3CCCC(c4nc5c(c(C(F)(F)F)nn5C)c(=O)[nH]4)C3)CC2)cn1 (single isomer, unassigned) [Compound 190a] | + (+ indicates a value of 10 to less than 50)
 |  |  | < 10 nM | < 10 nM | 100 to 1000 nM |  | O=C(NCC(F)(F)F)c1ccc(N2CCC(N3CCC(c4nc5ccccc5c(=O)[nH]4)C3)CC2)cn1 (single isomer, unassigned) [Compound 130a] | + (+ indicates a value of 10 to less than 50)
< 10 nM | < 10 nM | 10 to 100 nM |  |  |  |  | CNC(=O)c1ccc(N2CCC(N3CCC(c4nc5[nH]nc(C(F)(F)F)c5c(=O)[nH]4)C3)CC2)c(F)n1 (single isomer, unassigned) [Compound 267b] | +++ (+++ indicate a value of at least 100)
< 10 nM | < 10 nM | 1000 to 10000 nM |  |  |  |  | CCc1ccc(C2CCN(C3CCN(c4cnc(C(=O)NC)nc4C)CC3)C2)[nH]c1=O (single isomer, unassigned) [Compound 246b] | +++ (+++ indicate a value of at least 100)
< 10 nM |  | 10 to 100 nM |  |  |  | < 10 nM | CNC(=O)c1ccc(N2CCC(N3CC4(c5nc6cccc(C(F)(F)F)c6c(=O)[nH]5)CC3C4)CC2)cn1 [Compound 394] | + (+ indicates a value of 10 to less than 50)
< 10 nM | < 10 nM | 10 to 100 nM |  |  |  |  | CNC(=O)c1ccc(N2CCC(N3CCC(c4cc5cccc(F)c5c(=O)[nH]4)C3)CC2)cc1F (single isomer, unassigned) [Compound 281a] | + (+ indicates a value of 10 to less than 50)
 |  |  | < 10 nM | < 10 nM | 100 to 1000 nM |  | CNC(=O)c1ccc(N2CCC(N3CCC(c4ccc(CC(F)(F)F)c(=O)[nH]4)C3)CC2)cn1 (single isomer, unassigned) [Compound 188b] | +++ (+++ indicate a value of at least 100)
< 10 nM | < 10 nM | 100 to 1000 nM |  |  |  |  | CC(=O)NC(=O)c1ccc(N2CCC(N3CCC(c4cc5ccccc5c(=O)[nH]4)C3)CC2)cn1 (single isomer, unassigned) [Compound 333a] | +++ (+++ indicate a value of at least 100)
 |  |  | < 10 nM | < 10 nM | > 10000 nM |  | CNC(=O)c1ccc(N2CCC(N3CCC(c4ccc(COC)c(=O)[nH]4)C3)CC2)cn1 (single isomer, unassigned) [Compound 207a] | +++ (+++ indicate a value of at least 100)
< 10 nM | < 10 nM | 10 to 100 nM |  |  |  |  | CNC(=O)c1ccc(N2CCC(N3CCC(c4cc5ccc(F)cc5c(=O)[nH]4)C3)CC2)cc1F (single isomer, unassigned) [Compound 270b] | + (+ indicates a value of 10 to less than 50)
 |  |  | 10 to 100 nM | 10 to 100 nM | 1000 to 10000 nM |  | O=c1[nH]c(C2CCN(C3CCN(c4ccc(F)cc4F)CC3)C2)nc2ccccc12 (single isomer, unassigned) [Compound 107a] | + (+ indicates a value of 10 to less than 50)
< 10 nM | < 10 nM | 1000 to 10000 nM |  |  |  |  | CNC(=O)c1ccc(N2CCC(N3CCC(c4ccc(CC(F)F)c(=O)[nH]4)C3)CC2)cn1 (racemic) [Compound 391rac] | +++ (+++ indicate a value of at least 100)
